Several values for one entry are separate records, joined by “and”; a condition that tells them apart may be missing. Equal entries are not always repeated. Values belong to the molecule of their own block, whether it stands above or below them.
Key:
[1] = JN-170 plasma pharmacokinetics in C57Bl/6J mice, single oral dose; format: in vivo, mouse; set-up: JN-170 plasma level (Fig 2a): unit not given here
Description: Male homozygous BTBR-Pah<enu2>/J (Pah^enu2) aged 10–13 weeks were purchased from Jackson Laboratory (no. 002232). Immediately before dosing, each animal’s bladder was manually emptied and a plasma sample was drawn. Animals were dosed by oral gavage with vehicle (10% DMSO, 20% 2-hydroxypropyl-β-cyclodextrin [Sigma-Aldrich]) followed by a 1-week washout prior to dosing with JN-170 at doses ranging from 50 to 250 mg/kg. Following dosing with vehicle or JN-170, animals were individually placed in metabolic cages to collect urine samples. After collection of each urine sample, cages were rinsed with ultra-pure water to recover residual analytes. Blood samples were collected predose as well as 1, 3, 8, 12, and 24 hours after dosing with vehicle or JN-170 into tubes with EDTA as a […], and plasma was separated by centrifuging samples at 2,200g for 5 minutes at 4°C. Throughout the study, mice had access to food and water ad libitum. Plasma and urine samples were stored at –80°C until processing.Ten-week-old male WT C57Bl/6J animals (Si Bei Fu Laboratory Animal Technology Co. Ltd.) were dosed either with vehicle or 50–250 mg/kg JN-170 by oral gavage and blood and urine samples were collected as described. All animals had unrestricted access to food and water during the study; C57Bl/6J were kept on rodent maintenance diet from Beijing Keao Xieli, Pah^enu2 mice were kept on Teklad diet no. T.2018.
Plasma sample analyses were carried out by liquid chromatography tandem mass spectrometry (LC-MS/MS). Plasma samples were mixed 1:1 with carbamazepine or ^13C6-Phe as internal standards for JN-170 and Phe, respectively. Plasma proteins were precipitated by adding 4 volumes of acetonitrile (ACN) and 0.1% formic acid (FA) followed by centrifugation for 5 minutes at 2,100g. Supernatants were diluted 1:1 in ACN and 0.1% FA. For JN-170, a Waters HSS T3 reversed phase column was used for separation using a binary gradient of 0.1% FA in water (mobile phase A) to 0.1% in ACN (mobile phase B). At a flow rate of 0.8 mL/min, the mobile phase gradient increased from an initial 25% phase B to 95% phase B over 30 seconds. After, 1.5 minutes, the gradient was returned to 25% mobile phase B. For detection of Phe, an Acquity UPLC ethylene bridged hybrid (BEH) amide column was used, with a binary gradient of 10 mM ammonium acetate in 95:5:1 H2O:ACN:FA (mobile phase A) to 10 mM ammonium acetate in 95:5:1 ACN:H2O:FA (mobile phase B). At a flow rate of 0.5 mL/min, the mobile phase gradient changed from an initial 100% phase B to 50% phase B over 2.1 minutes. It was returned to 100% phase B after 4 minutes. Analytes were detected using a Sciex API-5500 in multiple reaction monitoring mode using an electrospray ionization source in the positive ion mode with the following ion transitions: m/z 435.2/84.1 (JN-170), 237.1/194.1 (carbamazepine), 166.1/120.1 (Phe), 172.2/126.2 for (^13C6-Phe). Analyte concentrations were calculated with a 1/×^2 linear regression over a concentration range of 1 or 2 to 5,000 ng/mL for JN-170 and 0.05–100 ng/mL for Phe.

SLC6A8 = tested on: T1, SLC6A8; assay: SLC6A8 creatine transport assay; format: cell-based, human; details: for SLC6A8 transport (Fig S2 curve point): technical replicates
T1 construct: V5; expressed in transfected cells; host or cells: Flp-In T-Rex 293 cells (Thermo Fisher), tetracycline-induced
Description: Supplementary Materials and Methods
Flp-In T-Rex 293 cells (Thermo Fisher) were engineered to induciblyexpress either V5-tagged human SLC1A5, SLC6A8 or SLC7A5 co-expressed with myc-DDK-tagged SLC3A2. Cells expressing SLC 1A5 or SLC6A8 were maintained in either DMEM or DMEM/F12 media supplemented with 10% FBS, 100 U/mL penicillin, 100 μg/mL streptomycin, 200 μg/mL hygromycin, and 10 μg/mL blasticidin. For cells expressing SLC7A5/SLC3A2, the media was additionally supplemented with 300 μg/mL geneticin. All cell lines were maintained at 37°C and 5% CO2. For transport experiments, all cell lines were plated in poly-D-lysine-coated 96-well plates at a density of 35,000 cells/well. One day after plating, expression of SLC1A5, SLC6A8 or SLC7A5 was induced by adding tetracycline at a concentration of 1 μg/mL. Cells were induced for 24 h prior to transport assays. […]
SLC6A8 creatine transport assay
Following a 24 h induction with tetracycline, cells were washed with PBS before JNT -517 was added in 8-point concentration-response diluted in DMEM. 3-guanidinopropionic acid was used as a positive control (33)at a concentrationof 1 mM and 0.5% DMSO was used as a negative control. Cells were incubated in a cell culture incubator for 30 minutes at 37°C and 5% CO 2 before 15 mM D3-labeled creatine (CDN Isotopes) was added as a transport substrate. After a 15 min incubation at 37°C and 5% CO2, cells were washed once with PBS. Cells were lysed in H2O with 500 nM D5-labeled creatine (CDN isotopes) as an internal standard for 1 h at 37°C.
Following lysis, a standard curve of dilution of D3-creatine was added to the last row of each plate. Plates were centrifuged for 5 min and supernatant was diluted 1:2 in H 2O. Sample desalting was performed on a high throughput Agilent RapidFire-365. From the analytical injection plate, approximately 40 μL of sample was desalted through an Agilent RapidFire Cartridge Graphitic Carbon Type D (G9206A) using water with 0.1% ammo nium hydroxide as the loading mobile phase A for 3000 milliseconds at a flow rate of 1.5 mL/min. The sample was then eluted from the cartridge using 80% acetonitrile containing 0.1% ammonium hydroxide for […]
An Agilent Q -ToF 6545 was […]
used as the analyzing mass spectrometer via electrospray ionization. Capillary voltage was set to 3 kV, with a gas temperature of 350°C. Nitrogen drying gas was applied at 12 L/min with a pressure of 40 psi, and sheath gas was set to 375°C with a flow of 12 L/min. All data were collected with a positive ion polarity and stored as centroid data. Agilent MassHunter QToF was […]
used as the integration software for measuring area under the peak for both D3 -creatine and D5-creatine as the internal standard. A linear regression was used from a standard curve of D3 - creatine to calculate absolute concentration from peak area. […]
Microbeta2 microplate counter (PerkinElmer). […]

- JN-170 plasma level (Fig 2a) ([1]; 50 mg/kg oral, 8 h, individual C57Bl/6 mice): 54.1
- JN-170 plasma level (Fig 2a) ([1]; 100 mg/kg oral, 8 h, individual C57Bl/6 mice): 1010 and 870 and 627
- concentration at 8 h ([1]; male, C57Bl/6J, mouse, plasma, oral, 250 mg/kg, 250 mg/kg oral, 8 h, individual C57Bl/6 mice, read-out: JN-170 plasma level (Fig 2a)): 3650 ng/mL
- concentration at 12 h ([1]; male, C57Bl/6J, mouse, plasma, oral, 250 mg/kg, 250 mg/kg oral, 12 h, individual C57Bl/6 mice, read-out: JN-170 plasma level (Fig 2a)): 1760 ng/mL
- bioavailability ([1]; male, C57Bl/6J, mouse, plasma, po): ~5%
SMILES: N#Cc1ccc(-c2noc([C@]3(C(F)(F)F)CCN(C(=O)NCCC4(N)CC4)C3)n2)cc1 [JN-170]
- JN-170 plasma level (Fig 2a) ([1]; 50 mg/kg oral, 1 h, individual C57Bl/6 mice): 4800 and 3580 and 3220 and 2280 and 3950 and 3920
- JN-170 plasma level (Fig 2a) ([1]; 50 mg/kg oral, 3 h, individual C57Bl/6 mice): 1290 and 798 and 1160 and 1370 and 1130 and 1480
- JN-170 plasma level (Fig 2a) ([1]; 100 mg/kg oral, 1 h, individual C57Bl/6 mice): 5300 and 7590 and 9540 and 8120 and 9150 and 8490
- JN-170 plasma level (Fig 2a) ([1]; 100 mg/kg oral, 3 h, individual C57Bl/6 mice): 3330 and 3500 and 3620 and 5290 and 4430 and 4000
- JN-170 plasma level (Fig 2a) ([1]; 200 mg/kg oral, 1 h, individual C57Bl/6 mice): 12900 and 18300 and 14800 and 17900 and 16400 and 14100
- JN-170 plasma level (Fig 2a) ([1]; 200 mg/kg oral, 3 h, individual C57Bl/6 mice): 9760 and 9530 and 8870 and 8820 and 12800 and 12000
- JN-170 plasma level (Fig 2a) ([1]; 200 mg/kg oral, 8 h, individual C57Bl/6 mice): 2260 and 1430 and 1410 and 2700 and 2480 and 4110
- JN-170 plasma level (Fig 2a) ([1]; 250 mg/kg oral, 1 h, individual C57Bl/6 mice): 18600 and 13000 and 21300 and 27800 and 20500 and 19600
- JN-170 plasma level (Fig 2a) ([1]; 250 mg/kg oral, 3 h, individual C57Bl/6 mice): 13400 and 8320 and 12600 and 16100 and 11000 and 13600

SMILES: NC(=O)N1CCC[C@@H](N(C(=O)NCc2ccc(OC(F)(F)F)cc2F)C2CC2)C1 [JNT-517]
- SLC6A8 transport (Fig S2 curve point) (SLC6A8; 0.0160037 uM): 97.4 and 85.6
- SLC6A8 transport (Fig S2 curve point) (SLC6A8; 0.048011 uM): 94 and 85
- SLC6A8 transport (Fig S2 curve point) (SLC6A8; 0.144033 uM): 99.7 and 86.6
- SLC6A8 transport (Fig S2 curve point) (SLC6A8; 0.432099 uM): 93.6 and 86.7
- SLC6A8 transport (Fig S2 curve point) (SLC6A8; 1.2963 uM): 93.8 and 90.6
- SLC6A8 transport (Fig S2 curve point) (SLC6A8; 3.88889 uM): 97.6 and 89.5
- SLC6A8 transport (Fig S2 curve point) (SLC6A8; 11.6667 uM): 90.1 and 92.7
- SLC6A8 transport (Fig S2 curve point) (SLC6A8; 35 uM): 95.9 and 86.1
- inhibition of SLC6A8 (SLC6A8; concentrations up to 35 μM): did not inhibit

From PMC11601558, “SLC6A19 inhibition facilitates urinary neutral amino acid excretion and lowers plasma phenylalanine” (JCI Insight, 2024)
